Results as given in ChEMBL document CHEMBL3885861, “Open TG-GATES”.

Organism: Rattus norvegicus
Experiment: Open TG-GATES - Regimen: Single
Format: toxicity, organism-based, Sprague-Dawley
Parameters: regimen Single, gender Male, age 6 weeks
Conditions: in vivo, po, 100 mg/kg, route gavage, dose level Low; for APTT / Bas / Eos / Fbg / Hb / Ht / Lym / MCH / MCHC / MCV / Mono / Neu / PT / Plat / RBC / Ret / WBC: tissue Blood; for KIDNEY_L / KIDNEY_R / KIDNEY_TOTAL: tissue Kidney; for LIVER: tissue Liver; for A/G / ALP / ALT / AST / BUN / CRE / Ca / Cl / DBIL / GLC / IP / K / LDH / Na / PL / RALB / TBIL / TC / TG / TP / gamma-GTP: tissue Plasma

## O=C(O)c1cc(/N=N/c2ccc(S(=O)(=O)Nc3ccccn3)cc2)ccc1O [SULFASALAZINE]
3 h
  TERMINAL_BW: 211 g
  APTT: 19.2 s
  Bas: 0%
  Eos: 1%
  Fbg: 216.6 mg/dL
  Hb: 13 g/dL
  Ht: 38.4%
  Lym: 77.2%
  MCH: 21.5 pg
  MCHC: 33.9%
  MCV: 63.4 fL
  Mono: 2.4%
  Neu: 18.6%
  PT: 12.5 s
  Plat: 129.8 x10_4/uL
  RBC: 605.4 x10_4/ul
  Ret: 7.1%
  WBC: 92.9 x10_2/uL
  KIDNEY_L: 1 g
  KIDNEY_R: 0.9 g
  KIDNEY_TOTAL: 1.9 g
  LIVER: 10.2 g
  A/G: 1.6
  ALP: 984.8 IU/L
  ALT: 37.4 IU/L
  AST: 69.4 IU/L
  BUN: 11 mg/dL
  CRE: 0.4 mg/dL
  Ca: 10.6 mg/dL
  Cl: 102.2 meq/L
  DBIL: 0.068 mg/dL
  GLC: 201.8 mg/dL
  IP: 9.5 mg/dL
  K: 3.7 meq/L
  LDH: 166.6 IU/L
  Na: 140.8 meq/L
  PL: 148 mg/dL
  RALB: 3.3 g/dL
  TBIL: 0.1 mg/dL
  TC: 80 mg/dL
  TG: 59.4 mg/dL
  TP: 5.4 g/dL
  gamma-GTP: 1.2 IU/L
6 h
  TERMINAL_BW: 210.8 g
  APTT: 19 s
  Bas: 0%
  Eos: 1%
  Fbg: 218.6 mg/dL
  Hb: 13.2 g/dL
  Ht: 38.5%
  Lym: 73.6%
  MCH: 21.9 pg
  MCHC: 34.3%
  MCV: 63.9 fL
  Mono: 3%
  Neu: 21.2%
  PT: 12.7 s
  Plat: 111 x10_4/uL
  RBC: 603.2 x10_4/ul
  Ret: 7.2%
  WBC: 89.7 x10_2/uL
  KIDNEY_L: 1 g
  KIDNEY_R: 1 g
  KIDNEY_TOTAL: 2 g
  LIVER: 9.7 g
  A/G: 1.6
  ALP: 986.4 IU/L
  ALT: 35.8 IU/L
  AST: 68.4 IU/L
  BUN: 10.2 mg/dL
  CRE: 0.4 mg/dL
  Ca: 10.6 mg/dL
  Cl: 101.8 meq/L
  DBIL: 0.066 mg/dL
  GLC: 193.6 mg/dL
  IP: 9.7 mg/dL
  K: 3.9 meq/L
  LDH: 198.6 IU/L
  Na: 140.2 meq/L
  PL: 148 mg/dL
  RALB: 3.3 g/dL
  TBIL: 0.1 mg/dL
  TC: 76.6 mg/dL
  TG: 61.2 mg/dL
  TP: 5.4 g/dL
  gamma-GTP: 1.6 IU/L
9 h
  TERMINAL_BW: 204.7 g
  APTT: 19.3 s
  Bas: 0%
  Eos: 1%
  Fbg: 225.8 mg/dL
  Hb: 13.2 g/dL
  Ht: 38.8%
  Lym: 82.4%
  MCH: 21.4 pg
  MCHC: 34%
  MCV: 63 fL
  Mono: 3.4%
  Neu: 12.4%
  PT: 12.8 s
  Plat: 113 x10_4/uL
  RBC: 616.6 x10_4/ul
  Ret: 6.7%
  WBC: 76.6 x10_2/uL
  KIDNEY_L: 1 g
  KIDNEY_R: 1 g
  KIDNEY_TOTAL: 2 g
  LIVER: 8.7 g
  A/G: 1.6
  ALP: 932.8 IU/L
  ALT: 35.4 IU/L
  AST: 63.8 IU/L
  BUN: 9.4 mg/dL
  CRE: 0.3 mg/dL
  Ca: 10.6 mg/dL
  Cl: 102.2 meq/L
  DBIL: 0.068 mg/dL
  GLC: 194.2 mg/dL
  IP: 10.2 mg/dL
  K: 3.8 meq/L
  LDH: 198.8 IU/L
  Na: 139.8 meq/L
  PL: 145.4 mg/dL
  RALB: 3.3 g/dL
  TBIL: 0.1 mg/dL
  TC: 83 mg/dL
  TG: 41.6 mg/dL
  TP: 5.5 g/dL
  gamma-GTP: 1.2 IU/L
24 h
  TERMINAL_BW: 221.5 g
  APTT: 17.9 s
  Bas: 0%
  Eos: 1%
  Fbg: 234.6 mg/dL
  Hb: 13.2 g/dL
  Ht: 38.5%
  Lym: 81%
  MCH: 21.2 pg
  MCHC: 34.4%
  MCV: 61.8 fL
  Mono: 2.8%
  Neu: 13.8%
  PT: 12.5 s
  Plat: 123 x10_4/uL
  RBC: 624 x10_4/ul
  Ret: 6.3%
  WBC: 86.3 x10_2/uL
  KIDNEY_L: 1 g
  KIDNEY_R: 1 g
  KIDNEY_TOTAL: 2 g
  LIVER: 10.5 g
  A/G: 1.6
  ALP: 1020.4 IU/L
  ALT: 40.4 IU/L
  AST: 64.6 IU/L
  BUN: 15.2 mg/dL
  CRE: 0.4 mg/dL
  Ca: 10.8 mg/dL
  Cl: 101.4 meq/L
  DBIL: 0.092 mg/dL
  GLC: 184 mg/dL
  IP: 7.7 mg/dL
  K: 4.1 meq/L
  LDH: 213 IU/L
  Na: 139.8 meq/L
  PL: 158.2 mg/dL
  RALB: 3.5 g/dL
  TBIL: 0.1 mg/dL
  TC: 79.6 mg/dL
  TG: 88.8 mg/dL
  TP: 5.7 g/dL
  gamma-GTP: 1.6 IU/L
